The values below come from BindingDB's records for doi:10.3109/14756366.2011.636362 (Aristotle University of Thessaloniki, 2013).

The target in the test is Gag-Pol polyprotein (Human immunodeficiency virus type 1 group M subtype B (isolate HXB2), UniProt P04585). Nature of the test: HIV-1 RT Activity Assay. The note with it: pH 7.8; 37 °C. The procedure:
HIV-1 Reverse Transcriptase Activity was measured using the colorimetric photometric immunoassay kit provided by Roche. Estimation of RT activity is achieved by quantification of the DNA synthesized by RT in a known period of time. Incubation was performed for 2 h at 37°C. PolyA:oligodT RNA template:primer hybrid at a concentration of 2.2 μg/ml was incubated with 20 nMof purified recombinant HIV-1 reverse transcriptase in a 50 μL incubation mixture containing 50 mM Tris-HCl pH 7.8, 160 mM KCl, 11 mM MgCl2, 5.3 mM DTT, 0.5 mM EDTA, 0.3% Triton-X 100 and 10 μM dTTP (unless otherwise mentioned) in the presence of digoxigeninconjugated dUTP (dUTP-DIG) and biotin-conjugateddUTP (dUTP-biotin). In a following step, the synthesised biotin-DIG-labelled DNA was bound to the surface of streptavidin-coated ELISA-plate wells. After washing out the unbound material, an antibody to digoxigenin, conjugated to peroxidase (anti-DIG-POD), was added and bound to the digoxigenin-labelled nucleotides. After a washing step and addition of the appropriate substrate, peroxidase catalyzed the transformation of the substrate, ABTS, to a yellow coloured reaction product. 15 min after ABTS addition, the coloured product was measured using a microtitre plate (ELISA) reader. For the estimation of inhibitory action of the compounds, reverse transcriptase was incubated in the presence of the potential inhibitor for 45 min at room temperature before addition of its substrates (pre-incubation).

Take `CCOc1ccc2nc(N3C(=O)CSC3c3c(F)cccc3F)sc2c1` (stereo not given) [3-(6-Ethoxybenzo[d]thiazol-2-yl)-2-(2,6-difluorophenyl)thiazolidin-4-one (19)]: the IC50 was > 40 µM.

With `COc1cccc2sc(N3C(=O)CSC3c3c(F)cccc3Cl)nc12` (stereo not given) [3-(4-Methoxybenzo[d]thiazol-2-yl)-2-(2-chloro-6-fluorophenyl)thiazolidin-4-one (16)], the 50% inhibitory concentration (IC50) was > 40 µM. As for `O=C1CSC(c2c(Cl)cccc2Cl)N1c1nc2c(Cl)cccc2s1` (stereo not given) [3-(4-Chlorobenzo[d]thiazol-2-yl)-2-(2,6-dichlorophenyl)thiazolidin-4-one (6)], the IC50 was > 40 µM. Turning to `COc1ccc2nc(N3C(=O)CSC3c3c(F)cccc3Cl)sc2c1` (stereo not given) [3-(6-Methoxybenzo[d]thiazol-2-yl)-2-(2-chloro-6-fluorophenyl)thiazolidin-4-one (13)], the 50% inhibitory concentration (IC50) is > 40 µM. With `O=C1CSC(c2c(Cl)cccc2Cl)N1c1nc2ccc(Cl)cc2s1` (stereo not given) [3-(6-Chlorobenzo[d]thiazol-2-yl)-2-(2,6-dichlorophenyl)thiazolidin-4-one (3)], the 50% inhibitory concentration (IC50) is > 40 µM. `COc1cccc2sc(N3C(=O)CSC3c3c(Cl)cccc3Cl)nc12` (stereo not given) [3-(4-Methoxybenzo[d]thiazol-2-yl)-2-(2,6-dichlorophenyl)thiazolidin-4-one (15)]: the IC50 stood at 3 µM. This counts as single-digit micromolar.

For the compound `O=C1CSC(c2c(F)cccc2Cl)N1c1nc2ccc(Cl)cc2s1` (stereo not given) [3-(6-Chlorobenzo[d]thiazol-2-yl)-2-(2-chloro-6-fluorophenyl)thiazolidin-4-one (4)], the IC50 is > 40 µM.

Regarding `COc1ccc2nc(N3C(=O)CSC3c3c(Cl)cccc3Cl)sc2c1` (stereo not given) [3-(6-Methoxybenzo[d]thiazol-2-yl)-2-(2,6-dichlorophenyl)thiazolidin-4-one (12)], the IC50 was > 40 µM. In turn, `O=C1CSC(c2c(Cl)cccc2Cl)N1c1nc2ccc(F)cc2s1` (stereo not given) [3-(6-Fluorobenzo[d]thiazol-2-yl)-2-(2,6-dichlorophenyl)thiazolidin-4-one (9)] registered a 50% inhibitory concentration (IC50) of 0.25 µM.

Regarding `O=C1CSC(c2c(F)cccc2Cl)N1c1nc2ccccc2s1` (stereo not given) [3-(Benzo[d]thiazol-2-yl)-2-(2-chloro-6-fluorophenyl)thiazolidin-4-one (2)], the half-inhibitory concentration (IC50) is > 40 µM. `O=C1CSC(c2c(F)cccc2F)N1c1nc2ccccc2s1` (stereo not given) [3-(Benzo[d]thiazol-2-yl)-2-(2,6-difluorophenyl)thiazolidin-4-one (1)]: the IC50 is > 40 µM.

For `CCOc1ccc2nc(N3C(=O)CSC3c3c(F)cccc3Cl)sc2c1` (stereo not given) [3-(6-Ethoxybenzo[d]thiazol-2-yl)-2-(2-chloro-6-fluorophenyl)thiazolidin-4-one (18)], the IC50 is 3.4 µM. Consider `O=C1CSC(c2c(F)cccc2F)N1c1nc2c(Cl)cccc2s1` (stereo not given) [3-(4-Chlorobenzo[d]thiazol-2-yl)-2-(2,6-difluorophenyl)thiazolidin-4-one (8)], for which the concentration for half-maximal inhibition (IC50) was > 40 µM. Then `O=C1CSC(c2c(F)cccc2Cl)N1c1nc2c(Cl)cccc2s1` (stereo not given) [3-(4-Chlorobenzo[d]thiazol-2-yl)-2-(2-chloro-6-fluorophenyl)thiazolidin-4-one (7)], with 0.04 µM; and `COc1ccc2nc(N3C(=O)CSC3c3c(F)cccc3F)sc2c1` (stereo not given) [3-(6-Methoxybenzo[d]thiazol-2-yl)-2-(2,6-difluorophenyl)thiazolidin-4-one (14)], with > 40 µM.

The IC50 is the concentration that gives 50% inhibition. Read a high IC50 as lower potency.
